According to patent publication US20090215835A1, “TREATMENT OF CANCER WITH SORAFENIB” (priority 2005, published 2009):

Assays:
Format in all cases: in vivo, human
[1] = tested on: inoperable hepatocellular carcinoma (HCC); assay: Tumor response, TTP and survival in patients with inoperable hepatocellular carcinoma on oral sorafenib; settings: 400 mg bid oral
Description: (§1) Patients with inoperable hepatocellular carcinoma (HCC), no prior systemic treatment, and Child-Pugh (CP) score of A or B, received oral sorafenib at 400 mg bid continuously in 4-week cycles. Tumor response was assessed every two cycles using modified WHO criteria and independent radiologic review. Plasma samples were collected to evaluate the pharmacokinetics (PK) of sorafenib. Biomarker assays were performed in selected patients. These included phospho-ERK levels via immunohistochemistry in pretreatment biopsies, plasma HER-2/neu analysis, plasma protein proteomics via mass spectrometry, and blood cell RNA expression patterns via Affymetrix GeneChip microarray analysis.

[2] = Drug-related toxicities in HCC patients on oral sorafenib; settings: 400 mg bid oral
Description: as §1

[3] = Pharmacokinetics of sorafenib in plasma of HCC patients; settings: Child-Pugh A versus B HCC patients, 400 mg bid oral
Description: as §1

[4] = 137 HCC patients, independent radiologic review

pharmacokinetic differences between CP A and B patients [3]: no pharmacokinetic differences
Substance: N-[4-chloro-3-(trifluoromethyl)phenyl]-N′-{4-[2-carbamoyl-1-oxo-(4-pyridyloxy)]phenyl}urea [sorafenib]
patients who achieved a partial response ([1]; 137 HCC patients, continuous 4-week cycles, independent radiologic review, modified WHO criteria): 2.2% | patients who achieved a minor response [1, 4]: 5.8% | patients with stable disease for at least 16 weeks as best response [1, 4]: 33.6% | median overall survival ([1]; HCC patients): 9.2 months | median TTP ([1]; investigator-assessed, HCC patients): 4.2 months | grade ¾ drug-related toxicity leading to dose delay and/or modification: diarrhea [2]: 4.4% | grade ¾ drug-related toxicity leading to dose delay and/or modification: fatigue [2]: 5.8% | grade ¾ drug-related toxicity leading to dose delay and/or modification: hand-foot skin reaction [2]: 5.1%
